Measured values reported in patent publication US20240092800A1, “USP13 INHIBITORS AND METHODS OF USE THEREOF” (GEORGETOWN UNIVERSITY, priority 2021, published 2024).

Assays:
human alpha-synuclein = assay: Alpha-synuclein levels in TgA53T mice (WB, ELISA, DAB staining); format: in vivo, mouse; details: 10 mg/kg or 40 mg/kg I.P. daily for 7 days, vs DMSO
human USP13 = target: T1, human USP13 (Homo sapiens, UniProt Q92995); assay: USP13 activity via ELISA in SHSY5Y cells; format: cell-based
T1 construct: USP13 activity via ELISA in human SHSY5Y neuroblastoma cells; endogenous in cells; host or cells: human SH-SY5Y neuroblastoma cells (transiently transfected with human wild-type alpha-synuclein, not with USP13)
T1 sequence (Q92995 1-863): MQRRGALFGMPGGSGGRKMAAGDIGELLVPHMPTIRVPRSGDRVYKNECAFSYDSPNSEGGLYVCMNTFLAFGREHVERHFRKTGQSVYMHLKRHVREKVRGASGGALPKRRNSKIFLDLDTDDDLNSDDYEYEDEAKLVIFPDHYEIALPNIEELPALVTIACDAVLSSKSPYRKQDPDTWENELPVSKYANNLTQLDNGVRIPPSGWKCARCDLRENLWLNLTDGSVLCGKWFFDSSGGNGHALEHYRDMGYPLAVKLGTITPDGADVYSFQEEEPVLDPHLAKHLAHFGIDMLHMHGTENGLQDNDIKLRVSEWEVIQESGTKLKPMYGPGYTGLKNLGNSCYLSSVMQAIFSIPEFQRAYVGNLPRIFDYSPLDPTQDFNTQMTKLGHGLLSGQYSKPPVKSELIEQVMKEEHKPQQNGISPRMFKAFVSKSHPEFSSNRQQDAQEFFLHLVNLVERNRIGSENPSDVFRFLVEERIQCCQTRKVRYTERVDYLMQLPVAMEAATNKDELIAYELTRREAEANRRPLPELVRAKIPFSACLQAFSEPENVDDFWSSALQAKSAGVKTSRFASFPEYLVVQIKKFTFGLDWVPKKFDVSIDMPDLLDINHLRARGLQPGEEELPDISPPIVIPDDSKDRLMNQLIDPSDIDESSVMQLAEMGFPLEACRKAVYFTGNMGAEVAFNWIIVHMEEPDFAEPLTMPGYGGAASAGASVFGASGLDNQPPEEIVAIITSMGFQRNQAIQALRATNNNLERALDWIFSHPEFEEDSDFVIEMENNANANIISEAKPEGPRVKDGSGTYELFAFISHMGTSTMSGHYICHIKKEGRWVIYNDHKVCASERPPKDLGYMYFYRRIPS
Description: Cell lines, transfection, and treatment.
A total of 25 μL soluble protein was incubated overnight at 4° C. with 25 μL of a mixed bead solution. After washing, samples were incubated with 25 μL detection antibody solution for 1.5 hours at room temperature. Streptavidin-phycoerythrin (25 μL) was added to each well containing the 25 μL of detection antibody solution. Samples were then washed and suspended in 100 μL of sheath fluid. Samples were then run on MAGPIX with Xponent software. The median fluorescent intensity (MFI) data were analyzed using a 5-parameter logistic or spline curve-fitting method for calculating analyte concentrations in samples. Specific alpha-synuclein ELISAs were performed on tissue soluble extracts from midbrain lysates in 1XSTEN buffer. The ELISA for USP13 (MyBioSource, Cat # MBS9335287), Human alpha-synuclein (Biolegend, Cat #844101) and specific p-Tau ser396 (Invitrogen, KHB7031) were performed on cell or brain tissue extracts as described above according to manufacturers' protocol.
Statistical and Data Analysis. All statistical analyses were performed using GraphPad Prism version 5.0 (GraphPad software, Inc, San Diego, CA, USA). Two-tailed student's t-test was used in comparison of means of two groups. Ordinary one-way analysis of variance (ANOVA) followed by Newman-Keuls or Dunnett comparison post hoc tests were used in comparison of means of multiple groups. Asterisks denote actual p-value significances (*<0.05, **<0.01, ***<0.001 and ****<0.0001), and N is the number of animals or the number of independent experiments (cell culture) per group. Unless otherwise indicated, data are expressed as Mean±SD. IC50 to USP13 levels was also estimated using GraphPad Prism version 5.0 (GraphPad software, Inc, San Diego, CA, USA).

Fc1ccc2nccc(OCc3ccccc3)c2c1 [4-(Benzyloxy)-6-fluoroquinoline]
human alpha-synuclein in midbrain lysates by WB (human alpha-synuclein): significantly reduced | IC50 (human USP13; SHSY5Y cell line, estimated with GraphPad Prism, read-out: IC50 to inhibit USP13 activity): 78 nM | USP13 activity via ELISA (human USP13; SHSY5Y cells, 5 hours, concentration range of 1 nM-1 mM): significantly reduce the activity of human USP13
